Results as given in patent US11903961B2, “Hemostatic agent and method of production thereof” (AMRITA VISHWA VIDYAPEETHAM, priority 2020, dated 2024).

System: PPP (coagulation cascade)
Experiment: PT, aPTT and TT studies on PPP (coagulation analyzer)
Type: biochemical
Settings: rat PPP incubated 2 min with sample
Experimental: To confirm the role of third agent (Ca) (130) in the hemostatic composition, PT, a PTT and TT studies were performed using ST art 4, Diagnostica Stago, France. PPP was separated from anti-coagulated rat whole blood by centrifugation. PPP was incubated with the developed hemostatic composition for 2 min. For PT study, PPP from incubated sample was added to PT reagent in a cuvette placed in test area of coagulation analyzer and the time taken for PPP to clot was noted as PT. For a PTT study, PPP from incubated sample was further incubated with a PTT reagent after with cuvette was placed in test area and STA®-CaCl2 0.025M solution was added. Time taken for PPP to clot was noted as a PTT. For TT study, PPP from incubated sample was added to TT reagent in a cuvette placed in test area and the time taken for PPP to clot was noted as TT.

[Ca+2].[Cl-].[Cl-] [third agent, calcium chloride]
shorter: PT | TT | aPTT
